Like-named read-outs stand apart in the source and are kept apart here.
Test: Pharmacokinetic study in male and female rats (single dose iv or po)
Format: in vivo, rat
Conditions: for Cmax / bioavailability / Tmax: plasma; for Cmax: read-out: Cmax; for Tmax: read-out: Tmax (converted)
Procedure: Compound A(−), DAPD, and DXG were administrated as a single dose, either intravenously through the jugular vein at 10 mg/kg or orally at 20, 125, 500, 1000 or 2000 mg/kg. All rats were fasted for 12 hours prior to po dosing treatment. The vehicle used for both iv and po administrations was 0.1% carboxymethylcellulose and 0.1% Tween 80 in distilled water, acidified to pH 3.15 with 1N HCl. Blood samples were taken from rats at the times shown in the schedule below for all oral dosing. From a total of 10 rats for each administration, seven time points were taken for the intravenous through the jugular vein dosing (2, 5, 15, 30, 60, 120 and 240 min) and for the oral dosing (5-360 min) at 20 mg/kg, whereas two additional time points at 480 and 1440 min were taken for the oral doses of 125-2000 mg/kg. As a result, each time point was in quadruplicate, except for the 1440 minute time point when blood samples were taken through the jugular vein from all the rats prior to being euthanized.
Blood samples (1 ml) were collected from the rat tails into a vacutainer containing EDTA (3 ml) for both iv and po administrations. Plasma samples were prepared by centrifugation at 2000×g for 15 minutes at 4° C.
Plasma samples (diluted to 1 ml with water) were loaded onto the Abselut Nexus sorbent (#1210-3100) and drawn through under low vacuum (approximately 5′′ Hg). One milliliter of deionized water was added to the sorbent and drawn through under vacuum. The extraction column was dried for 1 minute using a high vacuum (>10′′ Hg). One milliliter of methanol was added to the Abselut Nexus column and the eluent was collected at 1-2 ml/min. The eluent was evaporated to dryness using a Speed Vac, and the samples were reconstituted in 120 μl H2O; 100 μl was used for injection.

**Q.** For `Nc1nc(NC2CC2)c2ncn([C@H]3CO[C@@H](CO)O3)c2n1` [Compound A (-), (−)-(2R,4R)-2-hydroxymethyl-4-(2′-amino-6′-cyclopropylamino-purine-9′-yl)-1,3-dioxolane], which “AUG” value (female rat, iv 10 mg/kg) is on record?
**A.** Its value is 328 µg·min/mL.

**Q.** And the “T-half elimination” value (female rat, iv 10 mg/kg)?
**A.** The value was 36.9 min.

**Q.** And the “AUG” value (female rat, po 20 mg/kg)?
**A.** Its value is 602 µg·min/mL.

**Q.** What about the “T-half elimination” value (female rat, po 20 mg/kg) of the same compound?
**A.** The value was 57.1 min.

**Q.** And the “AUG” value (male rat, iv 10 mg/kg)?
**A.** The value was 304 µg·min/mL.

**Q.** What about the “T-half elimination” value (male rat, iv 10 mg/kg) of the same compound?
**A.** The value was 34.2 min.

**Q.** What about the “AUG” value (male rat, po 20 mg/kg) of the same compound?
**A.** Its value is 600 µg·min/mL.

**Q.** What about the “T-half elimination” value (male rat, po 20 mg/kg) of the same compound?
**A.** Its value is 72.5 min.

**Q.** And the Cmax (female rat, iv 10 mg/kg)?
**A.** The Cmax was 22900 ng/mL.

**Q.** What about the bioavailability (female rat, po 20 mg/kg) of the same compound?
**A.** The bioavailability was 92%.

**Q.** What about the Cmax (female rat, po 20 mg/kg) of the same compound?
**A.** Its Cmax is 5500 ng/mL.

**Q.** And the Tmax (female rat, po 20 mg/kg)?
**A.** Its Tmax is 22.8 min.

**Q.** What about the Cmax (male rat, iv 10 mg/kg) of the same compound?
**A.** Its Cmax is 19200 ng/mL.

**Q.** And the bioavailability (male rat, po 20 mg/kg)?
**A.** The bioavailability was 99%.

**Q.** And the Cmax (male rat, po 20 mg/kg)?
**A.** Its Cmax is 4600 ng/mL.

**Q.** What about the Tmax (male rat, po 20 mg/kg) of the same compound?
**A.** The Tmax was 23.4 min.

From patent US20010049372A1, “Antiviral nucleoside analogues” (BioChem Pharma Inc., priority 1998, published 2001)
